Data published in patent US20180153995A1, “USE OF ANTIMICROBIAL POLYMERS FOR RE-SENSITIZATION OF MICROORGANISMS UPON EMERGENCE OF RESISTANCE TO ANTI-MICROBIAL AGENTS” (Technion Research & Development Foundation Limited, priority 2008, published 2018).
Where two headings read alike, the source gives them in different places.

Tests used:
[1] = system: MRSA 15903; test: microbe, parasite or virus in culture; format: cell-based, Staphylococcus aureus
Outline: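 Two-agent combinations tested against MRSA 15903; FIC index = A/MICA + B/MICB, using MICs in combination versus alone. Below 0.5 read as clear re-sensitizing, 0.5–4 marginal or null, above 4 antagonism.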

[2] = system: S. aureus 43300; test: Antibiotic MIC by microdilution with or without sub-MIC polymer; format: cell-based, Staphylococcus aureus
[3] = system: S. aureus 15819; test: as above; format: cell-based, Staphylococcus aureus; details: S. aureus 15819
[4] = system: S. aureus 17314; test: as above; format: cell-based, Staphylococcus aureus
[5] = system: E. coli 16327; test: microbe, parasite or virus in culture
[6] = system: E. coli 14182; test: Antibiotic MIC by microdilution with or without sub-MIC polymer; format: cell-based, Escherichia coli
[7] = system: S. maltophila 748; test: as above; format: cell-based, Stenotrophomonas maltophila
[8] = system: E. coli K-12 efflux knockout mutant; format: cell-based, Escherichia coli; details: E. coli AG100A (efflux−)
Outline: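 Broth microdilution, inocula 10^5 bacteria/ml, 24 h at 37 °C. Growth read as OD620 against calibration standards.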

[9] = system: S. aureus 43300; test: Antibiotic MIC by microdilution with or without sub-MIC polymer; format: cell-based, Staphylococcus aureus; remark: listed apart in the source
[10] = +½ MIC (3.12 μM) C12(5-ene)KKNC12KNH2
[11] = +¼ MIC (1.6 μM) C12(5-ene)KKNC12KNH2
[12] = +¼ MIC (1.6 μM) C12K(KNC12K)3NH2
[13] = +½ MIC (3.12 μM) C12K(KNC12K)3NH2
[14] = +⅓ MIC (2.1 μM) C12(5-ene)KKNC12KNH2
[15] = +⅓ MIC (2.1 μM) C12K(KNC12K)3NH2

CC1(C)S[C@@H]2[C@H](NC(=O)Cc3ccccc3)C(=O)N2[C@H]1C(=O)O [Penicillin G, penicillin G]
MIC ([1]; MRSA 15903, +¼ polymer MIC (1.6 μM) NC12(KNC12K)2NH2): 8 µg/mL
MIC ([1]; MRSA 15903, +½ polymer MIC (3.1 μM) NC12(KNC12K)2NH2): 1 µg/mL
MIC ([1]; MRSA 15903, +⅓ polymer MIC (2.1 μM) NC12(KNC12K)2NH2): 2 µg/mL
MIC ([1]; MRSA 15903, antibiotic alone): 64 µg/mL
MIC, Alone ([1]; MRSA 15903, antibiotic alone (Table 22)): 64 µg/mL
MIC, ¼ + MIC OAK ([1]; MRSA 15903, with C12K(KNC10K)3NH2 (SEQ ID NO: 10) at ¼ of its MIC): 64 µg/mL
MIC, ½ + MIC OAK ([1]; MRSA 15903, with C12K(KNC10K)3NH2 (SEQ ID NO: 10) at ½ of its MIC): 4 to 16 µg/mL
MIC, ⅓ + MIC OAK ([1]; MRSA 15903, with C12K(KNC10K)3NH2 (SEQ ID NO: 10) at ⅓ of its MIC): 64 µg/mL
MIC ([1]; S. aureus CI-15903, +polymer (¼ MIC) C12(5-ene)KKNC12KNH2): 32 µg/mL
MIC ([1]; S. aureus CI-15903, +polymer (½ MIC) C12(5-ene)KKNC12KNH2): 0.25 µg/mL
MIC ([1]; S. aureus CI-15903, +polymer (⅓ MIC) C12(5-ene)KKNC12KNH2): 4 µg/mL
MIC ([1]; S. aureus CI-15903, alone): 64 µg/mL
Antibiotic MIC ([2]; +¼ MIC (1.6 μM) C14(9-ene)KKNC12KNH2): 4 µg/mL
Antibiotic MIC [2, 10]: 0.03 µg/mL
Antibiotic MIC ([2]; +½ MIC (3.12 μM) C14(9-ene)KKNC12KNH2): 2 µg/mL
Antibiotic MIC ([2]; +⅓ MIC (2.1 μM) C14(9-ene)KKNC12KNH2): 4 µg/mL
Antibiotic MIC ([2]; no polymer (None), Table 8): 4 µg/mL
Antibiotic MIC ([2]; no polymer (None), Table 9): 4 µg/mL
Antibiotic MIC ([2]; no polymer (None), Table 10): 4 µg/mL
Antibiotic MIC ([2]; no polymer (None), Table 11): 8 µg/mL
Antibiotic MIC ([2]; no polymer (None), Table 12): 8 µg/mL
Antibiotic MIC [3, 11]: 8 to 12 µg/mL
Antibiotic MIC [3, 12]: 4 µg/mL
Antibiotic MIC ([3]; +¼ MIC (1.6 μM) C12KKNC12KNH2): 8 µg/mL
Antibiotic MIC [3, 10]: 4 µg/mL
Antibiotic MIC [3, 13]: 0.5 µg/mL
Antibiotic MIC ([3]; +½ MIC (3.12 μM) C12KKNC12KNH2): 2 µg/mL
Antibiotic MIC [3, 14]: 8 µg/mL
Antibiotic MIC [3, 15]: 2 µg/mL
Antibiotic MIC ([3]; +⅓ MIC (2.1 μM) C12KKNC12KNH2): 4 µg/mL
Antibiotic MIC ([3]; no polymer (None), Table 8): 16 µg/mL
Antibiotic MIC ([3]; no polymer (None), Table 11): 16 µg/mL
Antibiotic MIC ([3]; no polymer (None), Table 13): 16 µg/mL
Antibiotic MIC [4]: 64 to 128 µg/mL
Antibiotic MIC ([4]; S. aureus 17314, +¼ MIC (1.6 μM) C12K(KNC12K)2NH2): 128 µg/mL
Antibiotic MIC ([4]; S. aureus 17314, +¼ MIC (1.6 μM) C14(9-ene)KKNC12KNH2): 8 µg/mL
Antibiotic MIC ([4]; S. aureus 17314, +¼ MIC (1.6 μM) C16(9-ene)KKNC12KNH2): 2 µg/mL
Antibiotic MIC ([4]; S. aureus 17314, +½ MIC (3.12 μM) C12K(KNC12K)2NH2): 64 µg/mL
Antibiotic MIC ([4]; S. aureus 17314, +½ MIC (3.12 μM) C12KKNC12KNH2): 64 µg/mL
Antibiotic MIC ([4]; S. aureus 17314, +½ MIC (3.12 μM) C14(9-ene)KKNC12KNH2): 6 µg/mL
Antibiotic MIC ([4]; S. aureus 17314, +½ MIC (3.12 μM) C16(9-ene)KKNC12KNH2): 0.5 µg/mL
Antibiotic MIC ([4]; S. aureus 17314, +⅓ MIC (2.1 μM) C12K(KNC12K)2NH2): 128 µg/mL
Antibiotic MIC ([4]; S. aureus 17314, +⅓ MIC (2.1 μM) C14(9-ene)KKNC12KNH2): 8 µg/mL
Antibiotic MIC ([4]; S. aureus 17314, +⅓ MIC (2.1 μM) C16(9-ene)KKNC12KNH2): 1 µg/mL
Antibiotic MIC ([4]; S. aureus 17314, no polymer (None), Table 9): 8 µg/mL
Antibiotic MIC ([4]; S. aureus 17314, no polymer (None), Table 10): 8 to 16 µg/mL
Antibiotic MIC ([4]; S. aureus 17314, no polymer (None), Table 11): 128 µg/mL
Antibiotic MIC ([4]; S. aureus 17314, no polymer (None), Table 12): 128 µg/mL
Antibiotic MIC [5]: >512 µg/mL
Antibiotic MIC ([5]; E. coli 16327, +¼ MIC (1.6 μM) C12K(KNC12K)2NH2): >512 µg/mL
Antibiotic MIC ([5]; E. coli 16327, +½ MIC (3.12 μM) C12K(KNC12K)2NH2): >512 µg/mL
Antibiotic MIC ([5]; E. coli 16327, +⅓ MIC (2.1 μM) C12K(KNC12K)2NH2): >512 µg/mL
Antibiotic MIC ([5]; E. coli 16327, no polymer (None), Table 9): >512 µg/mL
Antibiotic MIC ([5]; E. coli 16327, no polymer (None), Table 10): >512 µg/mL
Antibiotic MIC ([5]; E. coli 16327, no polymer (None), Table 12): >512 µg/mL
MIC, Alone ([5]; E. coli U16327, antibiotic alone (Table 22)): >512 µg/mL
MIC, ¼ + MIC OAK ([5]; E. coli U16327, with C12K(KNC10K)3NH2 (SEQ ID NO: 10) at ¼ of its MIC): >512 µg/mL
MIC, ½ + MIC OAK ([5]; E. coli U16327, with C12K(KNC10K)3NH2 (SEQ ID NO: 10) at ½ of its MIC): 512 µg/mL
MIC, ⅓ + MIC OAK ([5]; E. coli U16327, with C12K(KNC10K)3NH2 (SEQ ID NO: 10) at ⅓ of its MIC): >512 µg/mL
Antibiotic MIC, None ([5]; E. coli U-16327, antibiotic alone (Table 15)): >512 µg/mL
Antibiotic MIC in presence of C12K(NC8K)7NH2 (SEQ ID NO: 4), +¼ MIC ([5]; E. coli U-16327, polymer at ¼ of its MIC): >512 µg/mL
Antibiotic MIC in presence of C12K(NC8K)7NH2 (SEQ ID NO: 4), +½ MIC ([5]; E. coli U-16327, polymer at ½ of its MIC): 512 µg/mL
Antibiotic MIC in presence of C12K(NC8K)7NH2 (SEQ ID NO: 4), +⅓ MIC ([5]; E. coli U-16327, polymer at ⅓ of its MIC): >512 µg/mL
Antibiotic MIC ([6]; +½ MIC C12K(NC8K)5NH2): >512 µg/mL
Antibiotic MIC, None ([6]; antibiotic alone (Table 15)): >512 µg/mL
Antibiotic MIC ([6]; no polymer (None), Table 14): >512 µg/mL
Antibiotic MIC in presence of C12K(NC8K)7NH2 (SEQ ID NO: 4), +¼ MIC ([6]; polymer at ¼ of its MIC): >512 µg/mL
Antibiotic MIC in presence of C12K(NC8K)7NH2 (SEQ ID NO: 4), +½ MIC ([6]; polymer at ½ of its MIC): >512 µg/mL
Antibiotic MIC in presence of C12K(NC8K)7NH2 (SEQ ID NO: 4), +⅓ MIC ([6]; polymer at ⅓ of its MIC): >512 µg/mL
Antibiotic MIC [7, 12]: 512 µg/mL
Antibiotic MIC [7, 13]: 128 µg/mL
Antibiotic MIC [7, 15]: 256 to 512 µg/mL
Antibiotic MIC ([7]; no polymer (None), Table 13): 512 µg/mL
Antibiotic MIC, None ([8]; antibiotic alone (Table 16)): 8 µg/mL
Antibiotic MIC, None ([8]; antibiotic alone (Table 17)): 8 µg/mL
Antibiotic MIC in presence of C12K(NC8K)7NH2 (SEQ ID NO: 4), +¼ MIC ([8]; polymer at ¼ of its MIC (Table 16)): 8 µg/mL
Antibiotic MIC in presence of C12K(NC8K)7NH2 (SEQ ID NO: 4), +½ MIC ([8]; polymer at ½ of its MIC (Table 16)): 4 µg/mL
Antibiotic MIC in presence of C12K(NC8K)7NH2 (SEQ ID NO: 4), +⅓ MIC ([8]; polymer at ⅓ of its MIC (Table 16)): 8 µg/mL
Antibiotic MIC in presence of the OAK, +¼ MIC ([8]; the OAK at ¼ of its MIC (Table 17)): 4 to 8 µg/mL
Antibiotic MIC in presence of the OAK, +½ MIC ([8]; the OAK at ½ of its MIC (Table 17)): 4 µg/mL
Antibiotic MIC in presence of the OAK, +⅓ MIC ([8]; the OAK at ⅓ of its MIC (Table 17)): 4 to 8 µg/mL
Antibiotic MIC [9, 11]: 1 µg/mL
Antibiotic MIC ([9]; +¼ MIC (1.6 μM) C12K(KNC12K)2NH2): 8 µg/mL
Antibiotic MIC ([9]; +¼ MIC (1.6 μM) C12KKNC12KNH2): 4 µg/mL
Antibiotic MIC ([9]; +¼ MIC (1.6 μM) C16(9-ene)KKNC12KNH2): 2 µg/mL
Antibiotic MIC ([9]; +½ MIC (3.12 μM) C12K(KNC12K)2NH2): 4 µg/mL
Antibiotic MIC ([9]; +½ MIC (3.12 μM) C12KKNC12KNH2): 1 µg/mL
Antibiotic MIC ([9]; +½ MIC (3.12 μM) C16(9-ene)KKNC12KNH2): 0.25 µg/mL
Antibiotic MIC [9, 14]: 0.25 µg/mL
Antibiotic MIC ([9]; +⅓ MIC (2.1 μM) C12K(KNC12K)2NH2): 8 µg/mL
Antibiotic MIC ([9]; +⅓ MIC (2.1 μM) C12KKNC12KNH2): 2 to 4 µg/mL
Antibiotic MIC ([9]; +⅓ MIC (2.1 μM) C16(9-ene)KKNC12KNH2): 1 to 2 µg/mL
